{
  "source": "paper PMC10380083",
  "about": "“Synthesis of Prostate-Specific Membrane Antigen-Targeted Bimodal Conjugates of Cytotoxic Agents and Antiandrogens and Their Comparative Assessment with Monoconjugates” (International Journal of Molecular Sciences, 2023)",
  "key": {"[1]": {"test_system": "22Rv1 human prostate carcinoma xenograft", "conditions": "22Rv1 xenograft; for tumor volume V±m: i.v. triple injection, single dose 132.3 nM/kg; for Tumor growth inhibition: i.v. 132.3 nM/kg three times", "method": "(§1) We carried out in vivo studies of the efficacy of the obtained bimodal conjugates. […] Also, conjugate I (Figure 5) was used as a reference compound. An isotonic (0.9%) sodium chloride solution was used as a negative control. Studies were carried out in xenograft models of 22Rv1 human prostate carcinoma and PC-3 prostate adenocarcinoma in immunodeficient Balb/c nude mice (male).\n(§2) Two cell lines were used: human prostate carcinoma 22Rv1 and prostate adenocarcinoma PC-3 (ATCC collection). Cells were cultured in 75 cm^2 vials (Costar, Washington, DC, USA) in RPMI-1640 medium (PanEco, Russia) with the addition of 2 mM L-glutamine (PanEco, Russia) and 10% fetal calf serum (HyClone, Logan, UT, USA) under standard conditions of cultivation (in a humidified atmosphere at 37 °C and 5% CO2). Cells of 6–10 passages were used to inoculate the animals. Cell suspension was prepared with a concentration of 5 × 10^6 cells in 0.05 mL of the 22Rv1 medium and in 0.1 mL of the PC-3 medium. 22Rv1 cells were inoculated into animals in Matrigel (BD Matrigel Basement Membrane Matrix, BD Biosciences, San Jose, CA, USA). Manipulations with Matrigel were performed on a refrigerated plate using precooled materials, tubes and instrumentation. For animal administration, 50 μL of the cell suspension (5 × 10^6 cells) was transferred to a chilled tube containing 50 μL of Matrigel; after mixing, the cellular material (final volume of 100 μL) was injected subcutaneously into the groin area of the animal. To obtain subcutaneous xenograft PC-3, a 5 × 10^6 suspension of tumor cells was inoculated subcutaneously into the inguinal cavity of male mice in a volume of 0.1 mL.\n(§3) To study the antitumor efficacy, conjugates were administered intravenously at a dose of 132.3 nM/kg to tumor-bearing mice three times at five-day intervals; administration was started 7−8 days after cell inoculation, and the tumor size was 70−90 mm^3. As a control substance, 0.9% sodium chloride solution was used. Experimental groups included five animals each. […] The mixture was dissolved in DMSO (5% of final solution) and diluted with hemodesum (30% low-molecular-weight polyvinylpyrrolidone (Mw = 8000 ± 200) saline infusion solution). The presence of tumors and their sizes, as well as the body weights of the mice, were recorded every five days during the observation of the animals. The antitumor effect was assessed by comparing the tumor volumes in the experimental and control groups as well as the amount of tumor growth inhibition (TGI, %).\n(§4) Tumor volume was calculated using Formula (1):V = d1 × d2 × d3 × 0.52(1) where d1, d2 and d3 are the three mutually perpendicular dimensions of the tumor. […]\n(§5) 3.2.1. In vivo evaluation of antitumor efficacy […]\n(§6) intravenously at a dose of 132.3 nM/kg to tumor-bearing mice three times at 5-day intervals, the administration was started 7-8 days after cell inoculation to animals, tumor size was 70-90 mm3.\n(§7) A 0.9% sodium chloride solution was used as a control substance. The experimental groups […]\n(§8) The presence of tumor masses and their size, as well as the body weight of the mice, were recorded every 5 days during observation. In accordance with humane principles, animals were euthanized by placing the mice in a CO2 inhalation chamber (ZOONLAB GmbH, Germany)."}, "[2]": {"test_system": "PC-3 prostate adenocarcinoma xenograft", "conditions": "PC-3 xenograft; for tumor volume V±m: i.v. triple injection, single dose 132.3 nM/kg; for Tumor growth inhibition: i.v. 132.3 nM/kg three times", "method": "as §1, §2, §3, §4, §5, §6, §7, §8"}, "[3]": {"experiment": "Body weight, general condition and mortality in the antitumor efficacy study", "conditions": "i.v. 132.3 nM/kg x3", "method": "Animal body weight data are presented in Table S2 in the electronic supplementary materials.\nas §3, with “%). […]” for “%).”\nas §5, §6, §7, §8\nConjugate Method of injection Dose Number of animals 22Rv1 PC-3 […]\n3.4. In vivo Efficacy Evaluation\nDays after tumor implantation / mass± error, g\nConjugate 7 day 12 day 17 day […]\ninjection) injection) injection)\nHuman prostate carcinoma 22Rv1\nHuman prostate adenocarcinoma PC-3\nTable S3. Tumor growth dynamics of 22Rv1 and PC-3 in mice with intravenous triple injection of […]\nate Days after tumor implantation / V±m, mm3"}, "[4]": {"conditions": "7 day after tumor implantation (1st injection)"}, "[5]": {"conditions": "12 day after tumor implantation (2nd injection)"}, "[6]": {"conditions": "17 day after tumor implantation (3rd injection)"}, "[7]": {"conditions": "22 day after tumor implantation"}, "[8]": {"conditions": "27 day after tumor implantation"}, "[9]": {"conditions": "33 day after tumor implantation"}, "[10]": {"conditions": "37 day after tumor implantation"}, "[11]": {"conditions": "days after the start of treatment: 1"}, "[12]": {"conditions": "days after the start of treatment: 5"}, "[13]": {"conditions": "days after the start of treatment: 10"}, "[14]": {"conditions": "days after the start of treatment: 16"}, "[15]": {"conditions": "days after the start of treatment: 20"}},
  "note": "Like-named read-outs stand apart in the source and are kept apart here. Where a SMILES comes first, the peptide text is derived from it. [ ]: non-standard residue; d: D form. The star is where a group is joined. Dolaproine = CO[C@@H]([C@@H]1CCCN1)[C@@H](C)C(=O)O; Dil = CC[C@H](C)[C@H](NC)[C@@H](CC(=O)O)OC; X1 = C[C@@H](N*)[C@@H](O)c1ccccc1; NMeV = CN[C@H](C(=O)O)C(C)C",
  "data": [
    {"smiles": "CC[C@H](C)[C@@H]([C@@H](CC(=O)N1CCC[C@H]1[C@H](OC)[C@@H](C)C(=O)N[C@H](C)[C@@H](O)c1ccccc1)OC)N(C)C(=O)[C@@H](NC(=O)[C@@H](NC)C(C)C)C(C)C", "note": "[MMAE, Monomethyl Auristatin E, reference compound] (H-[NMeV]V[Dil][Dolaproine]-X1)", "values": [
      {"measurement": "tumor volume V±m", "setting": "[1]; [4]", "value": "73.7±14.3", "unit": "mm3"},
      {"measurement": "tumor volume V±m", "setting": "[1]; [5]", "value": "93.6±5.7", "unit": "mm3"},
      {"measurement": "tumor volume V±m", "setting": "[1]; [6]", "value": 125.3, "unit": "mm3"},
      {"measurement": "tumor volume V±m", "setting": "[1]; [7]", "value": 211.7, "unit": "mm3"},
      {"measurement": "tumor volume V±m", "setting": "[1]; [8]", "value": 388.2, "unit": "mm3"},
      {"measurement": "tumor volume V±m", "setting": "[1]; [9]", "value": 749.3, "unit": "mm3"},
      {"measurement": "tumor volume V±m", "setting": "[1]; [10]", "value": 1402.3, "unit": "mm3"},
      {"measurement": "Tumor growth inhibition", "setting": "[1]; [11]", "value": 41.5, "unit": "%"},
      {"measurement": "Tumor growth inhibition", "setting": "[1]; [12]", "value": 60.1, "unit": "%"},
      {"measurement": "Tumor growth inhibition", "setting": "[1]; [13]", "value": 64.7, "unit": "%"},
      {"measurement": "Tumor growth inhibition", "setting": "[1]; [14]", "value": 63.0, "unit": "%"},
      {"measurement": "Tumor growth inhibition", "setting": "[1]; [15]", "value": 51.0, "unit": "%"},
      {"measurement": "tumor volume V±m", "setting": "[2]; [4]", "value": "85.9±8.7", "unit": "mm3"},
      {"measurement": "tumor volume V±m", "setting": "[2]; [5]", "value": 117.9, "unit": "mm3"},
      {"measurement": "tumor volume V±m", "setting": "[2]; [6]", "value": 211.3, "unit": "mm3"},
      {"measurement": "tumor volume V±m", "setting": "[2]; [7]", "value": 330.9, "unit": "mm3"},
      {"measurement": "tumor volume V±m", "setting": "[2]; [8]", "value": 592.6, "unit": "mm3"},
      {"measurement": "tumor volume V±m", "setting": "[2]; [9]", "value": 1014.3, "unit": "mm3"},
      {"measurement": "tumor volume V±m", "setting": "[2]; [10]", "value": 1679.9, "unit": "mm3"},
      {"measurement": "Tumor growth inhibition", "setting": "[2]; [11]", "value": 29.8, "unit": "%"},
      {"measurement": "Tumor growth inhibition", "setting": "[2]; [12]", "value": 32.1, "unit": "%"},
      {"measurement": "Tumor growth inhibition", "setting": "[2]; [13]", "value": 29.5, "unit": "%"},
      {"measurement": "Tumor growth inhibition", "setting": "[2]; [14]", "value": 25.4, "unit": "%"},
      {"measurement": "Tumor growth inhibition", "setting": "[2]; [15]", "value": 38.4, "unit": "%"},
      {"measurement": "TGI, did not exceed", "setting": "[2]; i.v. 132.3 nM/kg three times at five-day intervals, male Balb/c nude mice", "value": "≤ 38.4", "unit": "%"},
      {"measurement": "body weight, mass ± error", "setting": "[3]; 22Rv1 xenograft mice, 7 day after tumor implantation (1st injection)", "value": "24.0 ± 1.3", "unit": "g"},
      {"measurement": "body weight, mass ± error", "setting": "[3]; 22Rv1 xenograft mice, 12 day after tumor implantation (2nd injection)", "value": "23.7 ± 1.3", "unit": "g"},
      {"measurement": "body weight, mass ± error", "setting": "[3]; 22Rv1 xenograft mice, 17 day after tumor implantation (3rd injection)", "value": "23.4 ± 1.3", "unit": "g"},
      {"measurement": "body weight, mass ± error", "setting": "[3]; 22Rv1 xenograft mice, 22 day after tumor implantation", "value": "23.5 ± 1.3", "unit": "g"},
      {"measurement": "body weight, mass ± error", "setting": "[3]; 22Rv1 xenograft mice, 27 day after tumor implantation", "value": "23.8 ± 1.3", "unit": "g"},
      {"measurement": "body weight, mass ± error", "setting": "[3]; 22Rv1 xenograft mice, 33 day after tumor implantation", "value": "24.0 ± 1.3", "unit": "g"},
      {"measurement": "body weight, mass ± error", "setting": "[3]; 22Rv1 xenograft mice, 37 day after tumor implantation", "value": "24.2 ± 1.4", "unit": "g"},
      {"measurement": "body weight, mass ± error", "setting": "[3]; PC-3 xenograft mice, 7 day after tumor implantation (1st injection)", "value": "22.4 ± 1.2", "unit": "g"},
      {"measurement": "body weight, mass ± error", "setting": "[3]; PC-3 xenograft mice, 12 day after tumor implantation (2nd injection)", "value": "22.7 ± 1.5", "unit": "g"},
      {"measurement": "body weight, mass ± error", "setting": "[3]; PC-3 xenograft mice, 17 day after tumor implantation (3rd injection)", "value": "22.4 ± 1.4", "unit": "g"},
      {"measurement": "body weight, mass ± error", "setting": "[3]; PC-3 xenograft mice, 22 day after tumor implantation", "value": "23.0 ± 1.4", "unit": "g"},
      {"measurement": "body weight, mass ± error", "setting": "[3]; PC-3 xenograft mice, 27 day after tumor implantation", "value": "23.1 ± 1.3", "unit": "g"},
      {"measurement": "body weight, mass ± error", "setting": "[3]; PC-3 xenograft mice, 33 day after tumor implantation", "value": "23.2 ± 1.2", "unit": "g"},
      {"measurement": "body weight, mass ± error", "setting": "[3]; PC-3 xenograft mice, 37 day after tumor implantation", "value": "23.3 ± 1.2", "unit": "g"}
    ]}
  ]
}
